In assay [1] the target is T1, hERG potassium ion channel (Homo sapiens, UniProt Q12809).
T1 construct: host or cells: CHO
Description: Effect on hERG potassium ion channel (CHO hERG cells, manual patch clamp). The assay is classed as cell-based. Conditions: final 10 μM test concentration, read-out: hERG inhibitory concentration IC50. The method, then: Assay 2: Effect on hERG Potassium Ion Channel 2.1 Cell Culture 2.1.1 Cells used in this experiment were CHO cell lines (supplied by Sophion Bioscience, Denmark) which were hERG cDNA transfectant and stably express hERG channels, and cell progeny was P15. Cells were cultured in medium containing the following ingredients Invitrogen): Ham's F12 medium, 10% (v/v) inactivated fetal bovine serum, […] Geneticin. 2.1.2 CHO hERG cells were grown in Petri dishes containing the above medium and cultured in an incubator containing 5% CO2 at 37° C. CHO hERG cells were transferred onto round glass plates in Petri dishes, and grown on the same culture medium under culture conditions as above for 24 h to 48 h prior to the electrophysiological experiments, and the density of CHO hERG cells on each round glass plate needs to meet the requirements that the vast majority of cells are independent and individual. 2.2 Experimental Solution The following solutions (supplied by Sophion) were used for electrophysiological recording as shown in Table 3. The reagents used in this test were provided by Sigma. [table] 2.3 Electrophysiological Recording System In this experiment, whole-cell current recording was performed using a manual patch clamp system (HEKA EPC-10 signal amplification and digital conversion system, purchased from HEKA Electronic, Germany). The round glass slide, surface of which CHO hERG cells were grown on was placed in an electrophysiological recording slot under an inverted microscope. Extracellular fluid was used for steady perfision in recording slot (approximately 1 ml per minute). A conventional whole-cell patch clamp current recording technique was used in the experiment. Unless otherwise specified, experiments were performed at normal room temperature (25° C.). Cell clamping was at −80 mV. Cell clamping voltage depolarized to +20 mV to activate hERG potassium channel, clamping to −50 mV after 5 sec to eliminate inactivation and generate tail currents. The tail current peak was used as a value for hERG current. The hERG potassium current recorded in the above steps could be superfused for test drug after the steady perfusion state of the extracellular fluid in the recording slot is stabilized until the inhibition of the hERG current by the drug reached a steady state. The coincidence of the last three consecutive current recording lines was generally used as a criterion to determine whether the state is stable. After reaching a steady state, perfused with extracellular fluid until hERG current returned to the value before the drug adding. One or more drugs could be tested on a single cell, or multiple concentrations of the same drug, but needed to be rinsed with extracellular fluid between different drugs. […] 2.4 Compound Treatment and Dilution The compound was firstly dissolved in DMSO to a concentration of 10 mM and then the compound was diluted 1000-fold to the final […] test concentration using an extracellular solution. The final concentration of DMSO in the compound test solution was equal to 0.1%. […] All stock solutions and test solutions were subjected to regular 5-10 minute sonication and shaken to ensure complete dissolution of the compound. 2.5 Data Analysis The test data were analyzed by the data analysis software provided by HEKA Patchmaster (V2x73.2), Microsoft Excel and Graphpad Prism 5.0.
Background: The hERG channel carries a current that helps repolarise heart muscle cells.

The target of the next assay is T2, hNav1.7 (Homo sapiens, UniProt Q15858).
T2 construct: host or cells: CHO
Description: Manual patch clamp experiment hNav1.7 (CHO-hNav1.7 stable cell line). The assay is classed as cell-based. The settings on record: for inhibition at 0.1 µM: compound at 100 nM, read-out: Inhibition of Nav1.7 100 nM(%); for inhibition at 1 µM: compound at 1000 nM, read-out: Inhibition of Nav1.7 1000 nM(%). The source says:
Assay 1: Manual Patch Clamp Experiment of Sodium Ion (hNav1.7, hNav1.5 and hNaV1.8) and Calcium Ion (hCav3.2) Channels
hNav1.7, hNav1.5 Manual Patch Clamp Experiment:
Patch voltage clamp electrophysiology allows for the direct measurement and quantification of current block of voltage-gated sodium channels (NaV's), and allows the determination of the time and voltage-dependence of block which has been interpreted as differential binding to the resting, open and inactivated states of the sodium channel to reflect the compound's inhibitory or activating effects (Hille, B., Journal of General Physiology (1977), 69: 497-515).
Representative compounds of the present invention were subject to a manual patch clamp experiment and the purpose of this study was to test the effect of compounds on this ion channel current on a stable cell line transfected with a specific ion channel using a manual patch clamp method. The used stable cell lines CHO-hNav1.7 and HEK-hNav1.5 were from Genionics and WuXi Apptec (Shanghai) respectively.
Manual patch clamp experimental program is as follows:
(1) Preparation of solutions and compounds: The whole cell patch clamp technique was used to record hNav1.7 and hNav1.5 currents. In the experiment, the composition of extracellular fluid (mM): HEPES: 5, NaCl: 40, KCl: CaCl2: 1, MgCl2: 1, CdCl2: 0.1, TEA-Cl: 20. The pH was adjusted to 7.3 with NaOH and the osmotic pressure was adjusted to 310-320 mOsm with sucrose, filtered and stored at 4° C. The composition of the intracellular fluid (mM): HEPES: 10, NaCl: 10, CsOH: 5, CsF: 140, EGTA: 1. The pH was adjusted to 7.3 with CsOH and the osmotic pressure was adjusted to 280-290 mOsm with sucrose, filtered and stored at −20° C.
The positive control and the test compound were firstly dissolved in 100% DMSO (Sigma-Aldrich, D2650), configured as stock solution at a concentration (100 nM, 1000 nM).) The above stock solution was serially diluted with DMSO prior to the experiment, the solution was further diluted with extracellular solution to obtain the test solution of the desired concentration.
(2) Manual Patch Clamp Experiment: The cell suspension was added to a 35 mm petri dish and placed on an inverted microscope stage. The cells were perfused with an extracellular fluid and the flow rate was 1-2 mL/min after cell adherence. The glass microelectrode was prepared in two steps by a microelectrode puller with an inlet water resistance of 2-5 MΩ. A/D-D/A digital-analog conversion was performed by Digidata 1440 (Molecular Devices) and pCLAMP software (version 10.2, Molecular Devices) for stimulation and signal acquisition; the signal was amplified by patch clamp amplifier (Multiclamp 700B, Molecular Devices), and filtering is 4 KHz.
Two different voltage stimulation procedures were used in the hNav1.7 and hNav1.5 manual patch clamp experiments.
One is the inactivation stimulation program, the clamp potential is set at V1/2 of the corresponding channel, i.e., about 50% of the channels are inactivated, then the voltage is applied to −120 mV for 50 ms, then depolarized to −10 mV for 20 ms leading to sodium current, and finally returned to the clamp potential. This stimulation program can also be called channel state-dependent voltage stimulation program.
The other is the non-inactivation stimulation program, the clamp potential is maintained at −120 mV, voltage stimulation is given to −10 mV for 20 ms leading to sodium current, and finally returned to the clamp potential. That is, all channels have not experienced inactivation status, but activate directly from the resting state under the conditions of the stimulation program.
The time intervals of these two voltage stimulation programs were 10 s. The inhibitory effect of the compound was calculated by the change of the current before and after dosing, the IC50 value was fitted by the Hill equation.
Background: In patch-clamp work, channel activity is measured electrically.

SMILES strings stand for the structures. Where only a bound is given, the exact number is not on record here.

T1 sequence (Q12809 whole entry): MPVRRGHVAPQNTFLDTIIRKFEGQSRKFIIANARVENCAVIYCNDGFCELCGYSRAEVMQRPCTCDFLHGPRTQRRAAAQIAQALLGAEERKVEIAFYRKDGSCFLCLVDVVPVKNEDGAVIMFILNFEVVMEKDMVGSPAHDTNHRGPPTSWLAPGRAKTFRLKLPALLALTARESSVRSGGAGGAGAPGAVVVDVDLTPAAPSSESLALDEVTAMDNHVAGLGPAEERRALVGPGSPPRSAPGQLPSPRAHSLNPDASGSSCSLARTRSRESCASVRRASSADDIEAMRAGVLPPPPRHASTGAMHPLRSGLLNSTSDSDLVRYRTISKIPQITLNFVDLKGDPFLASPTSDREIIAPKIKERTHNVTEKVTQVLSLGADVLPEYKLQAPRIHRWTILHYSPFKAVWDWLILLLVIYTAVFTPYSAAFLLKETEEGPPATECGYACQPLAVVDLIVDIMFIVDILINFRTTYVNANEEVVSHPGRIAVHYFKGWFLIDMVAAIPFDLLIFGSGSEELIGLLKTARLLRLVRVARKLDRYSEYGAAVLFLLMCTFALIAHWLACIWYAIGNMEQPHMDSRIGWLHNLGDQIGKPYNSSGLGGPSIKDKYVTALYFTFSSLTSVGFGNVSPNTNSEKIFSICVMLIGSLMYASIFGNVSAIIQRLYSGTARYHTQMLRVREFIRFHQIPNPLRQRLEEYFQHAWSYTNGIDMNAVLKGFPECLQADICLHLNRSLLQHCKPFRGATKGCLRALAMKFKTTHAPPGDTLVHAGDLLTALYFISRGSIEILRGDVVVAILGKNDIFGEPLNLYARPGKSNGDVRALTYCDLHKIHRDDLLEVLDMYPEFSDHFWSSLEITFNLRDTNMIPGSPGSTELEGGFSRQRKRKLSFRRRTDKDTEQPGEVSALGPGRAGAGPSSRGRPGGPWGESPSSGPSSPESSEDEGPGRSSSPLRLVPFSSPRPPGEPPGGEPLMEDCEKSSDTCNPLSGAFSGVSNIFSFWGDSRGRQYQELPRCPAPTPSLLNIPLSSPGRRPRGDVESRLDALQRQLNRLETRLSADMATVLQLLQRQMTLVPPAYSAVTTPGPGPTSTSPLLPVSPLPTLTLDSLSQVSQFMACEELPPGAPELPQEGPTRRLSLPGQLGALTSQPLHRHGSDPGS
T2 sequence (Q15858 whole entry): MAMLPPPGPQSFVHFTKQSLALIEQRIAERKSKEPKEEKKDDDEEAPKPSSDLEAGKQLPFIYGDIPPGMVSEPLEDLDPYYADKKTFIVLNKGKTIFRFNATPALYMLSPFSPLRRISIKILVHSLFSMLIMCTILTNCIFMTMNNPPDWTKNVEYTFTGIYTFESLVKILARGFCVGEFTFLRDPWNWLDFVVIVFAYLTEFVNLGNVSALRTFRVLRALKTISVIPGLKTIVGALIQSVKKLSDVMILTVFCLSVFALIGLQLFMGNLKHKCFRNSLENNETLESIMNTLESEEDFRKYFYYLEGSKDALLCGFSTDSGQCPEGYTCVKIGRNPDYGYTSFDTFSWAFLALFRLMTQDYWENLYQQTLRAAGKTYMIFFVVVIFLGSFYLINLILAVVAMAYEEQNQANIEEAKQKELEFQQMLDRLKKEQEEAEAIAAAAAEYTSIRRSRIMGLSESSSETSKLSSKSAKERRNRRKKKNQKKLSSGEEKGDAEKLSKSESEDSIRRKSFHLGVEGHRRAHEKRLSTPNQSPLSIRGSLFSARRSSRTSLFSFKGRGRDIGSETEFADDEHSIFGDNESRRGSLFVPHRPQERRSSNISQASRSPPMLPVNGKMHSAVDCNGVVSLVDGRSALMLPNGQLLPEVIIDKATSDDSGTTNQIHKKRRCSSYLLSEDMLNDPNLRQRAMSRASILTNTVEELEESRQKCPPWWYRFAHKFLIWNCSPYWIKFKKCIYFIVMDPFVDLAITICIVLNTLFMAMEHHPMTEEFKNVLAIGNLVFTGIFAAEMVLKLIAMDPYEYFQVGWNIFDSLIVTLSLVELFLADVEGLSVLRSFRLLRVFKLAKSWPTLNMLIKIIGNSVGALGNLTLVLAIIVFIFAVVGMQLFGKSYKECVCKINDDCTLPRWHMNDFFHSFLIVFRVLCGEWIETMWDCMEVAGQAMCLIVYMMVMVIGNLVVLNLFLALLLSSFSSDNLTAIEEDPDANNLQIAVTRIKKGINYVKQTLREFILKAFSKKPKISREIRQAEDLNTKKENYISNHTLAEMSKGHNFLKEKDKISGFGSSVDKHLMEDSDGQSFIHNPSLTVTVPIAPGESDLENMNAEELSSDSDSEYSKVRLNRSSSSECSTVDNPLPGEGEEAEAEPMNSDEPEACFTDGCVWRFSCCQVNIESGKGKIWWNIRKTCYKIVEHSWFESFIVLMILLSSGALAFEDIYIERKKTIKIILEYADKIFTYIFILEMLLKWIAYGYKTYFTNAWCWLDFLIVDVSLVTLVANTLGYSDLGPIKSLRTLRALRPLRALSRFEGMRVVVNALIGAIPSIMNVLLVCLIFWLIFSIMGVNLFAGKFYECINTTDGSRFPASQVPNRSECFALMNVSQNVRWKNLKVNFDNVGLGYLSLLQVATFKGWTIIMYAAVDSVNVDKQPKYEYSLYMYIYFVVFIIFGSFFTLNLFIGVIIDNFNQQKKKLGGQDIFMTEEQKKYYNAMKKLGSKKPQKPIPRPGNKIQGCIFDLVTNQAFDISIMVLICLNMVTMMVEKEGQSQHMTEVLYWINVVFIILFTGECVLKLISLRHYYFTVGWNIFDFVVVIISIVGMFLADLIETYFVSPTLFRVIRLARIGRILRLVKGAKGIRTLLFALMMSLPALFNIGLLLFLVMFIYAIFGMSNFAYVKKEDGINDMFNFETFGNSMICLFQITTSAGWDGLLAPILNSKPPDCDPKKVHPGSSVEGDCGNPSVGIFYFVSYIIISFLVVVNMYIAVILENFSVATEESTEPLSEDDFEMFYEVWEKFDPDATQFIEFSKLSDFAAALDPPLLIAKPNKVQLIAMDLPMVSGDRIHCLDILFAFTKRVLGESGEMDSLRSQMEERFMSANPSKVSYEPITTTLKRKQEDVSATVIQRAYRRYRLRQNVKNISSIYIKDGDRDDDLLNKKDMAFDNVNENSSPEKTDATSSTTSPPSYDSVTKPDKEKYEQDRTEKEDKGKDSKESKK

Consider `Cc1cc(N2CCN(Cc3cc(F)c(C(=O)NS(=O)(=O)C4CC4)cc3Cl)CC2)c(C)cc1Cl` [Compound Z-183], for which the IC50 in assay [1] is above 10 µM. Besides, on hNav1.7, the inhibition (commonly the relative decrease from the control value, in per cent) at 0.1 µM worked out at 90.8% and the inhibition at 1 µM amounted to 99.5%.
With `Cc1cc(N2CCN(Cc3cc(F)c(C(=O)NS(=O)(=O)C4CC4)cc3Cl)CC2)c(F)cc1Cl` [Compound Z-186], in assay [1], the IC50 is above 10 µM. For the same compound, at hNav1.7, the inhibition at 0.1 µM came to 83.3% and the inhibition at 1 µM came out at 100%.
On to `Cc1c(Cl)ccc(N2CCN(Cc3cc(F)c(C(=O)NS(=O)(=O)C4CC4)cc3Cl)CC2)c1Cl` [Compound Z-187], for which the IC50 in assay [1] is above 10 µM. At hNav1.7, the inhibition at 0.1 µM was found to be 89.7% and the inhibition at 1 µM came out at 100%.

The values above are taken from US10815197B2, “N-sulfonyl benzamides as voltage-gated sodium channel inhibitors” (SHANGHAI HAIYAN PHARMACEUTICAL TECHNOLOGY CO., LTD., priority 2016, dated 2020).
